In PMC3365763 (The Journal of Biological Chemistry, 2012) one finds IC50 data, which are given here for one compound.

Assay type in all cases: biochemical
The target in assay [1] is T1, TG2 (transglutaminase-2, transglutaminase type 2) (Homo sapiens, UniProt P21980).
T1 sequence (P21980 1-687): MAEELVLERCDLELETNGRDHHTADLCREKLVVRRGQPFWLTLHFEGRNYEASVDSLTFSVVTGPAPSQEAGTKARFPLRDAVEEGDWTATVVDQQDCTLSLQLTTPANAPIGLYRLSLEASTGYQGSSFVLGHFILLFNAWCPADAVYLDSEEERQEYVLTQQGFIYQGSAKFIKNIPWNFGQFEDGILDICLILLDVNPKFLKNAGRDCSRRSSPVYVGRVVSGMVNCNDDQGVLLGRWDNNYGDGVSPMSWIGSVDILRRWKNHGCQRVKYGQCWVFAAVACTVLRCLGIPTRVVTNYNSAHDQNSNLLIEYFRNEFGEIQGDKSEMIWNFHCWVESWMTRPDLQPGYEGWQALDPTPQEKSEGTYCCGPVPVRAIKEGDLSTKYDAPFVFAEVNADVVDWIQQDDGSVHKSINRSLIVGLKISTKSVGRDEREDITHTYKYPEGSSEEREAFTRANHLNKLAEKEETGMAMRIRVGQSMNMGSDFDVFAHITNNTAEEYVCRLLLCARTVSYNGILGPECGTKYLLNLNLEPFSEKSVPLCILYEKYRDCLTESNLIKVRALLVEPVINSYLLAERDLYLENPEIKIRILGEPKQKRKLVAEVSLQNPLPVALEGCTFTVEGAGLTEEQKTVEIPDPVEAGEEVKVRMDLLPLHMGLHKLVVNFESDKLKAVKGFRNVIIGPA

Assay [2] addresses T2, TG2 (transglutaminase-2, transglutaminase type 2) (Homo sapiens, UniProt P21980, R28S).
T2 sequence (P21980 1-687 R28S): T1 sequence (P21980 1-687) with R28S

The target of assay [3] is T3, TG2 (transglutaminase-2, transglutaminase type 2) (Homo sapiens, UniProt P21980, K265S).
T3 sequence (P21980 1-687 K265S): T1 sequence (P21980 1-687) with K265S

Assay [4] addresses T4, TG2 (transglutaminase-2, transglutaminase type 2) (Homo sapiens, UniProt P21980, K634S).
T4 sequence (P21980 1-687 K634S): T1 sequence (P21980 1-687) with K634S

Changes are numbered by the printed parent chain.

Regarding `Nc1nc2c(ncn2[C@@H]2O[C@H](COP(=O)(O)OP(=O)(O)OP(=O)(O)O)[C@@H](O)[C@H]2O)c(=O)[nH]1` [GTP], the IC50 in assay [1] amounted to 142 ± 24 µM; in assay [2] it was 64 ± 27 µM; in assay [3], 182 ± 17 µM; in assay [4] it was 199 ± 36 µM.

What is called IC50 is the concentration needed to halve the response being measured. High values mean lower potency, low ones higher potency.
